Experimental data from US10538561B2, “Peptide for treating inflammatory diseases” (priority 2015, dated 2020).
Read-outs that look alike come from different tables or passages of the source. Marks after values point to notes of the source that are not given here.

Assays:
[1] = in vitro; settings: human, HaCaT keratinocytes
Protocol: (§1) The cells were then incubated for 72 hours. Percentage cytotoxicity was determined using MTT assay.

[2] = tested on: Human Keratinocytes (HaCaT); experiment: In vitro combination methotrexate and IS181 (MTT); settings: for 50% Inhibition (concentration of MTX): 72 h
Protocol: as §1

[3] = tested on: VEGF; experiment: VEGF inhibition in keratinocytes (ELISA); assay type: cell-based, Human; settings: HaCaT, 24 h
Protocol: Cell lines: Human Keratinocytes (HaCaT); test item: IS181; treatment regimen: single addition—24 hours; concentration range: 0.1 μg/ml-100 μg/ml. […] Cells were serum-starved for another 24 hours (0% FBS). Cells were treated with IS181 for 24 hours. Supernatants were collected and stored at −20° C. till analysed. Levels of VEGF were analysed in supernatants by ELISA. Percent inhibition of VEGF secretion was calculated with reference to untreated levels. Positive control: curcumin; retinoic acid (at non-cytotoxic concentrations).

SMILES	cytotoxicity at 72 h, 0.01 µM [1] [%]	cytotoxicity at 72 h, 0.1 µM [1] [%]	cytotoxicity at 72 h, 0.25 µM [1] [%]	cytotoxicity at 72 h, 0.5 µM [1] [%]	cytotoxicity at 72 h, 1 µM [1] [%]	cytotoxicity at 72 h, 5 µM [1] [%]	50% Inhibition (concentration of MTX) ([2]; with IS181 10 μg/ml)	50% Inhibition (concentration of MTX) ([2]; with IS181 50 μg/ml)	IC50 ([2]; read-out: 50% Inhibition (concentration of MTX), 72 h, MTX Alone) [nM]	IC50 ([2]; read-out: 50% Inhibition (concentration of MTX), 72 h, with IS181 10 μg/ml) [nM]	IC50 ([2]; read-out: 50% Inhibition (concentration of MTX), 72 h, with IS181 50 μg/ml) [nM]	IC50 ([2]; read-out: 50% Inhibition (concentration of MTX), 72 h, with IS181 500 μg/ml) [nM]	IC50 ([2]; read-out: 50% Inhibition (concentration of MTX), 72 h, with IS181 1000 μg/ml) [nM]	IC50 ([2]; read-out: 50% Inhibition (concentration of MTX), 72 h, with IS181 2000 μg/ml) [nM]	IC50 ([2]; read-out: 50% Inhibition (concentration of MTX), 72 h, with IS181 5000 μg/ml) [nM]	Conc. of VEGF (pg/ml) ([3]; RA 1 μM)	Conc. of VEGF ([3]; RA 10 μM) [pg/mL]	inhibition at 1 µM ([3]; Homo sapiens, RA 1 μM, read-out: % Inhibition of VEGF wrt untreated (basal) levels) [%]	inhibition at 10 µM ([3]; Homo sapiens, RA 10 μM, read-out: % Inhibition of VEGF wrt untreated (basal) levels) [%]
CN(Cc1cnc2nc(N)nc(N)c2n1)c1ccc(C(=O)N[C@@H](CCC(=O)O)C(=O)O)cc1 [MTX, methotrexate]	12.3	1.9	21.3	23.9	27.7	22	50% inhibition was still not achieved	50% inhibition was still not achieved	> 5000	> 5000	> 5000	1000 to 5000	10	< 10	< 10				
CC1=C(/C=C/C(C)=C/C=C/C(C)=C/C(=O)O)C(C)(C)CCC1 [RA, retinoic acid, reference compound]																2775.1* pg/ml	2982.4	22.8	17
